The target of data set [1] is T1, human 5-HT2C receptor (Homo sapiens, UniProt P28335).
T1 sequence (P28335 33-458): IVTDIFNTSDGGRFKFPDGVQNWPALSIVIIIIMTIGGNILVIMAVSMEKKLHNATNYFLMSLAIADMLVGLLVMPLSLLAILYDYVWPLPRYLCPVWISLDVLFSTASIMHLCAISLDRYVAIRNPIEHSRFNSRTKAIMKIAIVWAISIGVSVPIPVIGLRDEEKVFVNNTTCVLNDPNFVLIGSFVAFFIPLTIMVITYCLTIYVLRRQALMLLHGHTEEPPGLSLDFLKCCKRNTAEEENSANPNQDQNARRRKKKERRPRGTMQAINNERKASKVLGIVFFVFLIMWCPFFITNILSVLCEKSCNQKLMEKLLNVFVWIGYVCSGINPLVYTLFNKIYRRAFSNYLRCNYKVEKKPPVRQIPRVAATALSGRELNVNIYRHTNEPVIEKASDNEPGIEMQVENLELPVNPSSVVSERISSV
Briefly: 5-HT2C receptor-stimulated calcium mobilization (FLIPR) in CHO cells. In kind it is cell-based. Particulars: for Emax: CHO, read-out: 5-HT2C Function EMax (%). In general terms: Calcium flux is commonly read through the fluorescence of an indicator in the cells.

The structures appear in SMILES notation. Structures can show the parent of a compound that is named as a salt. Where two headings read alike, the source gives them in different places.

For orientation: melting point means the temperature, or range, at which the solid turns liquid. On to `C[C@]1(CN)COc2cccc(-c3ccccc3Cl)c2O1` (as salt: fumarate) [Compound I-49, {[(2S)-8-(2-Chlorophenyl)-2-methyl-2,3-dihydro-1,4-benzodioxin-2-yl]methyl}amine], for which the melting point fell in the range of 149 to 152 °C. Still for that read-out and setting: the same measure for `CNCC1COc2cccc(-c3ccccc3C)c2O1` (stereo not drawn) (as salt: fumarate) [Compound I-17, N-Methyl-N-{[8-(2-methylphenyl)-2,3-dihydro-1,4-benzodioxin-2-yl]methyl}amine]: 177 to 178 °C; for `CNCC1COc2cccc(-c3cccc(C)c3C)c2O1` (stereo not drawn) (as salt: fumarate) [Compound I-25, {[8-(2,3-Dimethylphenyl)-2,3-dihydro-1,4-benzodioxin-2-yl]methyl}methylamine]: 194 to 195 °C. Compound `COc1cccc(-c2cc(Cl)cc3c2OC(CN)O3)c1OC` (stereo not drawn) (as salt: hydrochloride) [Compound I-95, [6-Chloro-4-(2,3-dimethoxy-phenyl)-benzo[1,3]dioxol-2-yl]-methylamine] had a melting point of 228 to 230 °C. Still for that read-out and setting: the same measure for `CNCC1COc2cccc(-c3cccc(OC)c3OC)c2O1` (stereo not drawn) (as salt: fumarate) [Compound I-30, {[8-(2,3-Dimethoxyphenyl)-2,3-dihydro-1,4-benzodioxin-2-yl]methyl}methylamine]: 159 to 160 °C; for `Clc1ccc(-c2cccc3c2OC(CNC2CC2)CO3)c(Cl)c1` (stereo not drawn) (as salt: fumarate) [Compound I-44, N-{[8-(2,4-Dichlorophenyl)-2,3-dihydro-1,4-benzodioxin-2-yl]methyl}cyclopropanamine]: 181 to 182 °C.

`CNCC1Oc2cc(F)cc(-c3ccccc3Cl)c2O1` (stereo not drawn) (as salt: hydrochloride) [Compound I-87, 1-[4-(2-Chlorophenyl)-6-fluoro-1,3-benzodioxol-2-yl]-N-methylmethanamine] had a melting point of 132 to 134 °C. By Emax is commonly meant the maximal effect, on the per cent scale that the assay sets. One may read the EC50 as the midpoint of the concentration-response curve. In the case of `CNCC1COc2cccc(-c3ccccc3C)c2O1` (stereo not drawn) [Compound I-17, N-Methyl-N-{[8-(2-methylphenyl)-2,3-dihydro-1,4-benzodioxin-2-yl]methyl}amine], the Emax in data set [1] amounted to 60%. In data set [1] (read-out: 5-HT2C Function EC50), the EC50 is below 100 nM.

On to `CNCC1COc2cccc(-c3cccc(F)c3F)c2O1` (stereo not drawn) [Compound I-27, {[8-(2,3-Difluorophenyl)-2,3-dihydro-1,4-benzodioxin-2-yl]methyl}methylamine], for which the Emax in data set [1] was determined as 20%. For the same compound, the EC50 in data set [1] (read-out: 5-HT2C Function EC50) fell in the range of 100 to 500 nM.

For the compound `CNCC1COc2cccc(-c3cccc(Cl)c3Cl)c2O1` (stereo not drawn) [Compound I-22, {[8-(2,3-Dichlorophenyl)-2,3-dihydro-1,4-benzodioxin-2-yl]methyl}methylamine], the Emax in data set [1] was 40%. Also, the half-maximal effective concentration (EC50) in data set [1] (read-out: 5-HT2C Function EC50) is below 100 nM. For the compound `CNCC1COc2cccc(-c3cccc(C)c3C)c2O1` (stereo not drawn) [Compound I-25, {[8-(2,3-Dimethylphenyl)-2,3-dihydro-1,4-benzodioxin-2-yl]methyl}methylamine], the Emax in data set [1] was found to be 30%. In data set [1] (read-out: 5-HT2C Function EC50), the EC50 was above 500 nM. On the same counts, the results for `CNCC1COc2cccc(-c3ccc(F)cc3F)c2O1` (stereo not drawn) [Compound I-28, {[8-(2,4-Difluorophenyl)-2,3-dihydro-1,4-benzodioxin-2-yl]methyl}methylamine] are 30% and above 500 nM. Turning to `CNCC1COc2cccc(-c3cc(C)ccc3C)c2O1` (stereo not drawn) [Compound I-26, {[8-(2,5-Dimethylphenyl)-2,3-dihydro-1,4-benzodioxin-2-yl]methyl}methylamine], the Emax in data set [1] was 50%. The EC50 in data set [1] (read-out: 5-HT2C Function EC50) is below 100 nM.

On to `Cc1cc2c(cc1Cl)N(C(=O)Nc1ccc(Oc3cccnc3C)nc1)CC2` [SB242084, reference compound], for which the EC50 in data set [1] (reference compounds, read-out: EC50) amounted to 0.01 nM.

Regarding `CNCC1COc2cccc(-c3cc(F)ccc3F)c2O1` (stereo not drawn) [Compound I-29, {[8-(2,5-Difluorophenyl)-2,3-dihydro-1,4-benzodioxin-2-yl]methyl}methylamine], the EC50 in data set [1] (read-out: 5-HT2C Function EC50) was above 500 nM.

The values above are taken from patent US20060241172A1, “Benzodioxane and benzodioxolane derivatives and uses thereof” (Wyeth, priority 2005, published 2006).
